Assay [1] deals with Hela cells. Description: 3-day in vitro proliferation assay, AlamarBlue, Hela cells. The class given is cell-based. The following applies: for anti cancer efficacy in combination with TH-302: HeLa cervical cell line. How it is done:
(§1) After a wash to remove drugs, cells were incubated with fresh media at 37° C. for an additional 3 days in the presence of a Chk1 inhibitor. Cell viability was determined using AlamarBlue. For a doxorubicin group (doxorubicin also induces cell cycle arrest in the G2/M phase and was used as a non-hypoxia activated prodrug control), cells were co-treated with doxorubicin and Chk1 inhibitors for 3 days.

Assay [2] concerns HT29 cells. Kind of assay: 3-day in vitro proliferation assay, AlamarBlue, HT29 cells. Format: cell-based. The settings on record: for anti cancer efficacy in combination with TH-302: HT-29 colon cell line. The protocol:
as §1
For orientation: Resazurin is reduced to fluorescent resorufin, in cell work by metabolically active cells.

Assay [3] has as its system H460 cells. Description: 3-day in vitro proliferation assay, AlamarBlue, H460 cells. The class given is cell-based. The following applies: for anti cancer efficacy in combination with TH-302: H460 non-small cell lung cell line; for change of activity by the presence of Chk1 inhibitors: H460, p53 wild type. How it is done:
as §1

Assay [4] has as its system HT-29 tumor. Description: HT29 xenograft antitumor activity. The class given is in vivo. The settings on record: HT-29 tumor-bearing mice, i.p., drug alone (TH-302 50 mg/kg QD×5/wk×2 wks or 100 mg/kg twice/wk×2 wks; AZD7762 12.5 mg/kg).
For assay [5], the system named is γH2AX. Kind of assay: γH2AX immunofluorescence (DNA damage response). The settings on record: p53−/− HT29 cells; 2 hr normoxic or hypoxic, then 4 hr; AZD7762 0.1 μM. The class given is cell-based. The protocol: HT29 cells were permeabilized with 1% Triton X-100 and incubated with γH2AX monoclonal antibody for 2 hr and goat anti-mouse-FITC for 1 hr. Cells were imaged using a fluorescent microscope (Nikon TS-100).

The test system of assay [6] is HT29 cells. Kind of assay: Luminescence-based caspase activity assay (Caspase Glo3/7), apoptosis. The class given is cell-based. The following applies: for induction of apoptosis: TH-302 0-10 μM air, 0-1 μM N2, AZD7762 0.1 μM, 2 hr + 46 hr. The protocol: Induction of apoptosis was also assessed. HT29 cells were seeded at a density of 40,000 cells per well of a 24 well plate. […] A luminescence-based caspase activity assay was performed. […] To validate the specificity of apoptotic signal, the pan-caspase inhibitor ZVAD was included in the testing.

Assay [7] concerns the target Chk2 (Homo sapiens, UniProt O96017). The following applies: read-out: IC50 for Chk2; cited from earlier work.
Assay [8] has as its system Du145 cells. Description: 3-day in vitro proliferation assay, AlamarBlue, Du145 cells. The class given is cell-based. The following applies: Du145, p53 heterozygous. How it is done:
as §1
Appropriate Du145 and H460 cells were treated with TH-302 and Chk1 inhibitors as described in Example 1.

In assay [9] the test system is p53 deficient cells. Kind of assay: Proliferation assay in p53 deficient cells (Horizon Discovery). The class given is cell-based. The protocol:
as §1
(§2) Cells (provided by Horizon Discovery Ltd. and generated using Horizon's adeno-associated virus (AAV) technology Genesis™) were treated as described in Example 1.

Assay [10] concerns p53 proficient cells. Description: Proliferation assay in p53 proficient cells (Horizon Discovery). The class given is cell-based. The protocol:
as §1, §2

In assay [11] the test system is Hela cells. Description: Cell cycle distribution by flow cytometry. Format: cell-based. How it is done: (§3) HeLa cells were treated with TH-302 and a Chk1 inhibitor as described in Example 1. Cells were harvested and analyzed for cell cycle distribution by flow cytometry and for protein expression by immunoblot.
(A flow cytometer gives signals particle by particle.)

For assay [12], the system named is Cdc2-Y15 phosphorylation. Kind of assay: Immunoblot of Cdc2-Y15 phosphorylation and protein expression. The class given is cell-based. The settings on record: for Cdc2-Y15 phosphorylation / DNA damaging agent-induced increase of Cdc2-Y15 phosphorylation in the presence of the Chk1 inhibitor: HeLa; for Cdc2-Y15 phosphorylation: agent alone; for DNA damaging agent-induced increase of Cdc2-Y15 phosphorylation in the presence of the Chk1 inhibitor: with Chk1 inhibitor. How it is done: as §3

The subject of assay [13] is AA8 CHO cells. Kind of assay: Cytotoxicity in HDR proficient AA8 CHO cells. Format: cell-based. The following applies: Cricetulus griseus. The protocol: as §1
(§4) To investigate which DNA repair system is affected by Chk-1 inhibitor-mediated enhancement of TH-302 cytotoxicity, CHO cell-based DNA repair mutant cell line pairs were utilized. The experimental details were as described in Example 1. […] HDR (homology-dependent repair) is the specific type of DNA repair capable of repairing TH-302-induced DNA damage.

The test system of assay [14] is irs1SF. Kind of assay: Cytotoxicity in HDR deficient irs1SF cells. The class given is cell-based. The protocol:
as §1, §4

The test system of assay [15] is UV41. Description: Cytotoxicity in HDR deficient UV41 cells. Format: cell-based. The protocol:
as §1, §4

The subject of assay [16] is Rad51. Kind of assay: Immunoblot of Rad51 expression. The following applies: HT29; samples as for the Histone H3 blot. Format: cell-based. The protocol: To explore involved signaling pathways, an immunoblot analysis was conducted. HT29 cells were seeded in p60 dishes at a density of 2×10^6 cells per dish and incubated overnight for cell attachment. […] Insoluble debris was pelleted and the protein concentration of the resulting supernatant determined using a Sigma BCA kit (St. Louis, Mo.). About 10 μg of protein from each sample were loaded onto and SDS gel and electrophoresed and then electrotransferred to a nitrocellulose membrane. Proteins were detected with an electrochemiluminescent detection system (ChemiGlow; Protein Simple, Santa Clara, Calif.) using antibodies recognizing Histone H3.
The samples were collected as described above for the Histone H3 blot. In response to TH-302, Rad51 expression levels were increased.
A general note: A western blot detects proteins with antibodies after separation by electrophoresis.

Entries after “also recorded” stand apart in the source; their conditions may differ. Read-outs that look alike come from different tables or passages of the source. Residues, ends and D or L forms follow the SMILES beside them. *: point of attachment. Cbz = O=C(OCc1ccccc1)*; CH2F = FC*

Sequence of Chk2 (O96017 whole entry): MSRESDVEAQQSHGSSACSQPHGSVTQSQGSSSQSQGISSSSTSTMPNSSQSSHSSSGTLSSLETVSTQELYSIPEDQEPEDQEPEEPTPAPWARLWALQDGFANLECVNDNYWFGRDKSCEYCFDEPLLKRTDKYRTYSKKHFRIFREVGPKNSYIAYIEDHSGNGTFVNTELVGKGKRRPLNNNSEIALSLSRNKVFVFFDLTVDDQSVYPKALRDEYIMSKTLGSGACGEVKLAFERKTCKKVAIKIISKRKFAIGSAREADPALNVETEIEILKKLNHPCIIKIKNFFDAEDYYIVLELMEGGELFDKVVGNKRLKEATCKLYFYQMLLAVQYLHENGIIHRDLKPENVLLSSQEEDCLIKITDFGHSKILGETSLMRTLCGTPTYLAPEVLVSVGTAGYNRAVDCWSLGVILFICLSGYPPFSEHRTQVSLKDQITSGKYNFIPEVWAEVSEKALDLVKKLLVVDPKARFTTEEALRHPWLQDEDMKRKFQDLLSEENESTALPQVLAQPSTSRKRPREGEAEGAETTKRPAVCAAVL

With `NC(=O)Nc1cc(-c2cccc(F)c2)sc1C(=O)N[C@H]1CCCNC1` [AZD7762], the figures for the “anti cancer efficacy in combination with TH-302” value (from here on “anti cancer efficacy”) in assay [1], in assay [2] and in [3] were “increased anti cancer efficacy”, “increased anti cancer efficacy” and “not”, respectively. In assay [4], the tumor growth entry is “produced a growth delay”. For the same molecule, the γH2AX staining entry in assay [5] is given as “could induce γH2AX”. Moreover, in assay [6], the induction of apoptosis entry is listed as “slight increase”. In addition, the IC50 in [7] is less than 0.01 µM.
Turning to `Cc1cnc(NC(=O)Nc2cc(Br)c(C)cc2OC[C@@H]2CNCCO2)cn1` [LY2603618], the “anti cancer efficacy” value in assay [1] is given as “increased anti cancer efficacy”; in assay [2], “increased anti cancer efficacy”; in [3], “not”.
As to `Cn1c(COP(=O)(NCCBr)NCCBr)cnc1[N+](=O)[O-]` [TH-302], the “enhancement of TH-302 activity by the presence of a Chk1 inhibitor” value in assay [1] (Hela, p53-deficient, any one of PF477736, AZD7762, LY2603618) lay in the range of 15 to 50 fold; in assay [2] (HT29, p53-deficient, any one of PF477736, AZD7762, LY2603618), 15 to 50 fold. Besides, the “change of activity by the presence of Chk1 inhibitors” value (shortened to “change … of Chk1 inhibitors”) in assay [1] (Hela, 0.4 μM PF477736, 0.1 μM AZD7762 or 0.5 μM LY2603618, normoxia or hypoxia) is reported as “significantly enhanced”; in assay [2] (HT29, 0.4 μM PF477736, 0.1 μM AZD7762 or 0.5 μM LY2603618, normoxia or hypoxia), “significantly enhanced”; in assay [3], “not enhanced; also recorded: not affected”; in assay [8], “not enhanced”. Moreover, the “change of activity by co-treatment with a Chk1 inhibitor” value is given as “significantly enhanced” in [9] and “not” in [10]. Also, in assay [11] (agent alone), the cell cycle arrest entry is “concentration-dependent cell cycle arrest at G2/M”. In addition, the “TH-302-mediated G2/M arrest in the presence of the Chk1 inhibitor” value in assay [11] (with Chk1 inhibitor) is “abrogated”. Further, the “expression of Cdc-2, Myt1 and Chk1” value in assay [12] is on record as “does not affect”. For the same molecule, the Cdc2-Y15 phosphorylation result in assay [12] is recorded as “upregulate phosphorylation of Cdc2-Y15”. Also, the “DNA damaging agent-induced increase of Cdc2-Y15 phosphorylation in the presence of the Chk1 inhibitor” value in [12] was “completely eliminated”. In addition, the tumor growth entry in assay [4] is “produced a growth delay”. In assay [5], the γH2AX staining result is “could induce γH2AX”. Further, the induction of apoptosis entry in assay [6] was “did not induce apoptosis”. The IC50 was determined as 3.2 µM in assay [13] (AA8, N2, read-out: IC50 of TH-302 monotherapy); 1.2 µM in [13] (AA8, N2, with AZD7762 (0.1 μM), read-out: TH-302 IC50); 490 µM in assay [13] (AA8, air, read-out: IC50 of TH-302 monotherapy); 260 µM in assay [13] (AA8, air, with AZD7762 (0.1 μM), read-out: TH-302 IC50); 0.4 µM in assay [14] (N2, read-out: IC50 of TH-302 monotherapy); 0.3 µM in assay [14] (N2, with AZD7762 (0.1 μM), read-out: TH-302 IC50). Besides, the half-maximal inhibitory concentration (IC50) amounted to 54 µM in assay [14] (air, read-out: IC50 of TH-302 monotherapy); 63 µM in [14] (air, with AZD7762 (0.1 μM), read-out: TH-302 IC50); 0.06 µM in assay [15] (UV41, N2, with AZD7762 (0.1 μM), read-out: TH-302 IC50); 0.07 µM in assay [15] (UV41, N2, read-out: IC50 of TH-302 monotherapy); 26 µM in assay [15] (UV41, air, with AZD7762 (0.1 μM), read-out: TH-302 IC50); 29 µM in [15] (UV41, air, read-out: IC50 of TH-302 monotherapy). Also, the Rad51 expression levels entry in assay [16] is “increased”.
With `CC(NC(=O)C(NC(=O)OCc1ccccc1)C(C)C)C(=O)NC(CC(=O)O)C(=O)CF` (stereo not drawn) [ZVAD] (Cbz-Val-Ala-Asp-CH2F; configuration not given here), the “apoptotic signal generated by the combination therapy” value in assay [6] (added to TH-302 and AZD7762) is recorded as “reduced the apoptotic signal”.
For `COc1cccc2c1C(=O)c1c(O)c3c(c(O)c1C2=O)C[C@@](O)(C(=O)CO)C[C@@H]3O[C@H]1C[C@H](N)[C@H](O)[C@H](C)O1` [doxorubicin, reference compound], the “change … of Chk1 inhibitors” value in [3] is recorded as “lack of enhanced activity”. Besides, in assay [8], the “change … of Chk1 inhibitors” value is given as “lack of enhanced activity”. In assay [12], the Cdc2-Y15 phosphorylation result is listed as “upregulate phosphorylation of Cdc2-Y15” and the “DNA damaging agent-induced increase of Cdc2-Y15 phosphorylation in the presence of the Chk1 inhibitor” value was “completely eliminated”.
As for PF477736, the “anti cancer efficacy” value in [1] is listed as “increased anti cancer efficacy”; in assay [2] it was “increased anti cancer efficacy”; in assay [3], “not”.

Broadly, the IC50 is the concentration that inhibits the measured activity by half.

The values above are taken from US9254299B2, “Administration of hypoxia activated prodrugs in combination with Chk1 inhibitors for treating cancer” (THRESHOLD PHARMACEUTICALS, INC., priority 2011, dated 2016).
